The values below come from EP0283151A2, “Prostaglandins useful for lowering intraocular pressure” (ALLERGAN, INC, priority 1987, dated 1988).

The nature of test [1]: IOP effects in conscious rabbits, applanation pneumatonometry. The class given is in vivo, New Zealand-Dutch Belt cross rabbits. Set-up: IOP (Test): unit not given here. The conditions noted are these: for IOP (Test): treated eye; for concentration having the same effect in lowering intraocular pressure: solution applied to the eye. As for the experimental part: (§1) The ocular hypotensive activity of these compounds was measured by applanation pneumatonometry.
The effect of 0.1 percent PGF2α on IOP versus 0.01% solution of the 9,11,15 triacetyl ester of PGF2α was measured in New Zealand-Dutch Belt cross rabbits. Intraocular pressure was measured by applanation pneumatonometry in conscious animals. Nine animals were used for each experiment. The data from this study as summarized in Table I show about a 10-fold difference in the activity of 9,11,15-triacetyl PGF2α compound over PGF2α.

Test [2] is described as follows: Duration of IOP-lowering action in cats after topical application. The class given is in vivo. More on the design: unit not given here. The conditions noted are these: topical 0.1%, 25μL. As for the experimental part: as §1
The duration of action of the triester (9,11,15-triacetyl ester) in comparison with that of the native PGF2α was tested in cats.

Marks after values point to notes of the source that are not given here.

On to `CCCCC[C@H](O)/C=C/[C@@H]1[C@@H](C/C=C\CCCC(=O)O)[C@@H](O)C[C@H]1O` [PGF2α, reference compound], for which the “IOP (Test)” value in test [1] (rabbits, 0.1% solution, 0 hours) was determined as 21.67; in test [1] (rabbits, 0.1% solution, 0.5 hours), 23.00; in test [1] (rabbits, 0.1% solution, 1.0 hours) it was 24.00; in test [1] (rabbits, 0.1% solution, 1.5 hours), 24.35; in test [1] (rabbits, 0.1% solution, 2.0 hours) it was 22.67; in test [1] (rabbits, 0.1% solution, 2.5 hours) it was 20.92. The “IOP (Test)” value in test [1] (rabbits, 0.1% solution, 3.5 hours) is 19.50*; in test [1] (rabbits, 0.1% solution, 4.5 hours), 20.75. In test [1], the “concentration having the same effect in lowering intraocular pressure” value was 0.1%. Moreover, the “Test IOP” value is 19.8 in test [2] (0.0 hours); 18.2 in test [2] (0.5 hours); 15.4* in test [2] (1.0 hours); 14.5* in test [2] (2.0 hours); 15.3* in test [2] (3.0 hours); 16.7* in test [2] (4.0 hours). In addition, the “Test IOP” value in test [2] (6.0 hours) is listed as 21.5; in test [2] (24.0 hours), 19.8; in test [2] (-0.5 hours), 19.7.
As for `CCCCC[C@@H](/C=C/[C@H]1C(OC(C)=O)C[C@H](OC(C)=O)[C@@H]1C/C=C\CCCC(=O)O)OC(C)=O` (stereo partly drawn) [Triester, (5Z,9α,13E,15S)-9,11,15-triacetoxyprosta-5,13-dienoic acid], the “IOP (Test)” value in test [1] (rabbits, 0.01% solution, 0 hours) is 24.39; in test [1] (rabbits, 0.01% solution, 0.5 hours) it was 24.67; in test [1] (rabbits, 0.01% solution, 1.0 hours), 23.56; in test [1] (rabbits, 0.01% solution, 1.5 hours), 22.72*; in test [1] (rabbits, 0.01% solution, 2.0 hours) it was 21.33*; in test [1] (rabbits, 0.01% solution, 2.5 hours) it was 20.83*. Further, the “IOP (Test)” value in test [1] (rabbits, 0.01% solution, 3.5 hours) is on record as 22.22*; in test [1] (rabbits, 0.01% solution, 4.5 hours), 23.28. Also, the “increase in potency in terms of lowering IOP compared to PGF2α” value in test [1] (rabbits, 0.01% triacetyl ester versus 0.1% PGF2α) was approximately 10 fold. The “concentration having the same effect in lowering intraocular pressure” value in test [1] is reported as 0.01%. Also, the “Test IOP” value in test [2] (0.0 hours) is 20.6; in test [2] (0.5 hours), 18.6; in test [2] (1.0 hours), 17.9*; in test [2] (2.0 hours), 17.0*; in test [2] (3.0 hours), 18.0*; in test [2] (4.0 hours), 17.8*. Also, the entries for the “Test IOP” value in test [2] (6.0 hours), in test [2] (24.0 hours) and in test [2] (-0.5 hours) were 18.8*, 20.0* and 21.2, respectively.
